According to PubChem BioAssay AID2060496 (Molecular Pharmacology Branch, DTP, NCI, 2025):
Where “and” joins values, the source holds several entries; their conditions need not be identical. Equal values may be shown once. One block for each compound: values may come before it.

Tested on: 276233-004-R-J1-PDC complex spheroid viability
Assay: Anticancer human tumor 276233-004-R-J1-PDC patient-derived colon adenocarcinoma cell line growth inhibition [GQUAD]
Conditions: for viability, T/C: stronger effect = lower value
Text: DNA G-quadruplex Stabilizer Agents in Combinations in Complex Spheroids
A high-throughput screen of multi-cell type tumor spheroids was designed to identify active combinations of DNA G-quadruplex stabilizer agents and targeted small molecules. Complex spheroids include a stromal component modeled by human endothelial cells (HUVEC) and fibroblasts modeled by human mesenchymal stem cells (MSCs). The concentration ranges selected for each drug and investigational agent were based upon clinically achievable concentrations if the clinical Cmax of the agent was known.
Compounds. The drugs and investigational agents: pidnarulex (CX-5461; NSC782164), APTO-253 (NSC789042), BRACO-19 (NSC847499), peposertib (NSC802822), ceralasertib (NSC780249), elimusertib (NSC800525), camonsertib (NSC841442), AZD-1390 (NSC803789), olaparib (NSC753686), talazoparib (NSC767125), ART-558 (NSC835418), sotorasib (NSC818433), MRTX-1133 (NSC836407), SN-38 (NSC673596), topotecan (NSC609699), etoposide (NSC141540), doxorubicin (NSC123127), gemcitabine (NSC613327), 5-fluorouracil (NSC19893), paclitaxel (NSC125973), vemurafenib (NSC761431), panobinostat (NSC761190), R-306465 (JNJ-16241199; NSC773264), adavosertib (NSC754352), TP-3654 (NSC805149), carboplatin (NSC241240), KSQ-4279 (NSC840948), and staurosporine (NSC755774) were obtained from the National Cancer Institute (NCI) Developmental Therapeutics Program Chemical Repository (34). The FDA-approved anticancer drug set is available from the NCI Developmental Therapeutics Program. […] The stock solutions were prepared in dimethyl sulfoxide (DMSO, Sigma-Aldrich, St. Louis, MO, cat. D2650) at 800-fold the tested concentration and stored at -70 degrees C prior to their use. All drugs and investigational agents were tested over a range starting from a high concentration at or near the clinical Cmax and decreasing in half-log increments. If the clinical Cmax for an agent had not been determined, the highest concentration tested was 10 microM.
2.3 Cell Culture. All cells were maintained in an incubator at 37 degrees C and 5% CO2 with 95% humidity. The PDC lines were cultured according to standard operating procedures established by the NCI PDMR. All PDCs were thawed and cultured in Matrigel-coated flasks prepared with a working solution of 1X Ham's F-12 nutrient mix, without supplementation (Invitrogen, cat. 11765054), 100 U/mL penicillin-streptomycin (Invitrogen, cat. 15140122), and 2.5% Matrigel (Corning Inc., cat. 354248) for the first three passages. The 857933-349-R-J2-PDC line was cultured in 6C/Colon 1B media, which includes advanced DMEM/F-12 (Thermo Fisher Scientific, cat. 12634028), 10 mM HEPES (Thermo Fisher Scientific, cat. 15630080), 1X GlutaMAX supplement (Thermo Fisher Scientific, cat. 35050061), 0.1 mg/mL primocin (InvivoGen, cat. ant-pm-2), 10% defined fetal bovine serum, heat inactivated (HyClone Laboratories Inc., cat. SH30070.03HI), 50% L-WRN conditioned media (ATCC, cat. CRL-3276), 1.25 mM N-Acetyl-L-cysteine (Sigma-Aldrich, cat. A9165), 10 mM nicotinamide (Sigma-Aldrich, cat. N0636), 1X B-27 supplement (Thermo Fisher Scientific, cat. 17504044), 1X N-2 supplement (Thermo Fisher Scientific, cat. 17502048), 10 microM Y-27632 dihydrochloride (Tocris Bioscience, cat. 1254), and 50 ng/mL human EGF recombinant protein (Thermo Fisher Scientific, cat. PHG0311). The 485176-168-R4-J1-PDC line was cultured in Panc media, which includes all 6C/Colon 1B media components plus 100 ng/mL human FGF-10 (Thermo Fisher Scientific, cat. 100-26), 500 nM SB-431542 (Selleckchem, cat. S1067), and gastrin (Tocris, cat. 3006).
[…]
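Further: spheroids exposed to drugs for seven days.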
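Wherever viability, T/C is given: 100% = DMSO vehicle control viability.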

IC50 (curve of compound): 0.432 µM and 0.479 µM and 0.397 µM
Structure (SMILES): O=C(NO)c1cnc(N2CCN(S(=O)(=O)c3ccc4ccccc4c3)CC2)nc1
viability, T/C (compound 0.0316 µM): 87% and 88.3% and 112%
viability, T/C (compound 0.1 µM): 108% and 125% and 89%
viability, T/C (compound 0.316 µM): 68.1% and 77.6% and 63.9%
viability, T/C (compound 1 µM): 1.97% and 0.86% and 8.3%
viability, T/C (compound 3.16 µM): 0.67% and 0.79% and 4.97%
viability, T/C (compound 10 µM): 1.35% and 1.12% and 3.62%

IC50 (curve of first compound, second compound 0.0316 µM): > 10 µM
IC50 (curve of first compound, second compound 0.1 µM): > 10 µM
IC50 (curve of first compound, second compound 0.316 µM): > 10 µM
IC50 (curve of first compound, second compound 1 µM): > 10 µM
IC50 (curve of first compound, second compound 3.16 µM): > 10 µM
IC50 (curve of first compound, second compound 10 µM): > 10 µM
Structure (SMILES): Nc1ccn(C2OC(CO)C(O)C2(F)F)c(=O)n1 (centres undefined) + Cc1cnc(CNC(=O)c2c(=O)c3ccc(N4CCCN(C)CC4)nc3n3c2sc2ccccc23)cn1
viability, T/C (second compound 0.0316 µM, first compound 0.0316 µM): 82.7%
viability, T/C (second compound 0.0316 µM, first compound 0.1 µM): 77.7%
viability, T/C (second compound 0.0316 µM, first compound 0.316 µM): 83.8%
viability, T/C (second compound 0.0316 µM, first compound 1 µM): 81.1%
viability, T/C (second compound 0.0316 µM, first compound 3.16 µM): 88.4%
viability, T/C (second compound 0.0316 µM, first compound 10 µM): 72.6%
viability, T/C (second compound 0.1 µM, first compound 0.0316 µM): 89.8%
viability, T/C (second compound 0.1 µM, first compound 0.1 µM): 87.9%
viability, T/C (second compound 0.1 µM, first compound 0.316 µM): 80.7%
viability, T/C (second compound 0.1 µM, first compound 1 µM): 93.3%
viability, T/C (second compound 0.1 µM, first compound 3.16 µM): 84.4%
viability, T/C (second compound 0.1 µM, first compound 10 µM): 79.9%
viability, T/C (second compound 0.316 µM, first compound 0.0316 µM): 80%
viability, T/C (second compound 0.316 µM, first compound 0.1 µM): 97.9%
viability, T/C (second compound 0.316 µM, first compound 0.316 µM): 86.6%
viability, T/C (second compound 0.316 µM, first compound 1 µM): 80.4%
viability, T/C (second compound 0.316 µM, first compound 3.16 µM): 77%
viability, T/C (second compound 0.316 µM, first compound 10 µM): 76.7%
viability, T/C (second compound 1 µM, first compound 0.0316 µM): 94.2%
viability, T/C (second compound 1 µM, first compound 0.1 µM): 78.8%
viability, T/C (second compound 1 µM, first compound 0.316 µM): 105%
viability, T/C (second compound 1 µM, first compound 1 µM): 83.8%
viability, T/C (second compound 1 µM, first compound 3.16 µM): 82.5%
viability, T/C (second compound 1 µM, first compound 10 µM): 79.9%
viability, T/C (second compound 3.16 µM, first compound 0.0316 µM): 80%
viability, T/C (second compound 3.16 µM, first compound 0.1 µM): 68%
viability, T/C (second compound 3.16 µM, first compound 0.316 µM): 91.8%
viability, T/C (second compound 3.16 µM, first compound 1 µM): 73.2%
viability, T/C (second compound 3.16 µM, first compound 3.16 µM): 66.3%
viability, T/C (second compound 3.16 µM, first compound 10 µM): 62.3%
viability, T/C (second compound 10 µM, first compound 0.0316 µM): 65.8%
viability, T/C (second compound 10 µM, first compound 0.1 µM): 75.2%
viability, T/C (second compound 10 µM, first compound 0.316 µM): 69.5%
viability, T/C (second compound 10 µM, first compound 1 µM): 78.2%
viability, T/C (second compound 10 µM, first compound 3.16 µM): 65.2%
viability, T/C (second compound 10 µM, first compound 10 µM): 57.5%
